According to ChEMBL document CHEMBL3739407, “Synthesis and SAR of Imidazo[1,5-a]pyridine derivatives as 5-HT4 receptor partial agonists for the treatment of cognitive disorders associated with Alzheimer's disease” (Eur J Med Chem, 2015):

Assays:
[1] = Cmax in Wistar rat at 10 mg/kg, po and 5 mg/kg, iv; type: ADME, organism-based; details: in vivo
[2] = Oral bioavailability in Wistar rat at 10 mg/kg; type: ADME, organism-based; details: in vivo
[3] = Ratio of drug level in brain to plasma in Wistar rat at 10 mg/kg, po and 5 mg/kg, iv; type: ADME, organism-based; details: read-out: BPR
[4] = Volume of distribution at steady state in Wistar rat at 10 mg/kg, po and 5 mg/kg, iv by LC-MS analysis; type: ADME, organism-based; details: in vivo, read-out: Vdss
[5] = Cmax in beagle dog at 1 mg/kg, po; type: ADME, organism-based, Canis lupus familiaris; parameters: dose 1 mg/kg, route oral; details: in vivo
[6] = Cmax in Wistar rat at 3 mg/kg, po; type: ADME, organism-based; parameters: dose 3 mg/kg, route oral; details: in vivo
[7] = Oral bioavailability in beagle dog at 1 mg/kg; type: ADME, organism-based, Canis lupus familiaris; details: in vivo
[8] = Apparent volume of distribution in beagle dog at 1 mg/kg, iv administered as 5 mins infusion; type: ADME, organism-based, Canis lupus familiaris; details: in vivo, read-out: Vd(app)
[9] = Apparent permeability of the compound in human Caco2 cells; type: ADME, cell-based; details: Caco-2
[10] = Tmax in Wistar rat at 3 mg/kg, po; type: ADME, organism-based; details: in vivo
[11] = AUC (0 to t) in beagle dog at 1 mg/kg, po; type: ADME, organism-based, Canis lupus familiaris; details: in vivo
[12] = Oral bioavailability in Wistar rat at 3 mg/kg; type: ADME, organism-based; details: in vivo
[13] = Tmax in beagle dog at 1 mg/kg, po; type: ADME, organism-based, Canis lupus familiaris; details: in vivo
[14] = AUC (0 to t) in Wistar rat at 3 mg/kg, po; type: ADME, organism-based; details: in vivo
[15] = Apparent volume of distribution in Wistar rat at 1 mg/kg, iv; type: ADME, organism-based; details: in vivo, read-out: Vd(app)
[16] = AUC (0 to t) in Wistar rat at 1 mg/kg, iv; type: ADME, organism-based; details: in vivo
[17] = AUC (0 to t) in beagle dog at 1 mg/kg, iv administered as 5 mins infusion; type: ADME, organism-based, Canis lupus familiaris; details: in vivo

SMILES	Cmax [1] [ng/mL]	bioavailability [2] [%]	Kp [3]	Vd [4] [L/kg]	other results
CC(C)c1nc(C(=O)NC2CCN(C3CCOCC3)CC2)c2ccccn12	1760	98	0.31	4.6	–
CC(C)c1nc(C(=O)NC[C@@H]2[C@H]3CN(CC(C)(C)F)C[C@@H]23)c2ccccn12	8.1	1.5	0.38	4.9	–
COCCCN1CCC(CNC(=O)c2nc(C(C)C)n3ccccc23)CC1	109	30	0.22	5.2	–
CC(C)c1nc(C(=O)NC[C@@H]2[C@H]3CN(CC(C)(C)O)C[C@@H]23)c2ccccn12	277	34	0.31	3.8	–
COCCCN1C[C@@H]2[C@@H](CNC(=O)c3nc(C(C)C)n4ccccc34)[C@@H]2C1	188	26	0.31	3.7	Cmax [5]: 412 ng/mL; Cmax [6]: 188 ng/mL; bioavailability [7]: 94%; Vd [8]: 2.1 L/kg; Papp [9]: 34.8 ×10⁻⁶ cm/s; Tmax [10]: 15 min; AUC(0-t) [11]: 1220 ng·h/mL; bioavailability [12]: 26%; Tmax [13]: 30 min; AUC(0-t) [14]: 301 ng·h/mL; Vd [15]: 3.7 L/kg; AUC(0-t) [16]: 389 ng·h/mL; AUC(0-t) at 5 min [17]: 1310 ng·h/mL
CC(C)c1nc(C(=O)NC2CCN(CC3CC3)CC2)c2ccccn12	74	3.7	–	5.3	–
CC(C)c1nc(C(=O)NC[C@@H]2[C@H]3CN(CC4CCOCC4)C[C@@H]23)c2ccccn12	120	17	0.6	10.4	–
CC(C)c1nc(C(=O)NC2CCN(CCF)CC2)c2ccccn12	99	11	1.46	2.9	–
CC(C)c1nc(C(=O)NC[C@@H]2[C@H]3CN(C(C)C)C[C@@H]23)c2ccccn12	80	5	0.14	7.6	–
CC(C)c1nc(C(=O)NCC2CCN(CC3CCOCC3)CC2)c2ccccn12	232	45	0.31	4	–
CC(C)c1nc(C(=O)NC2CCN(C(C)C)CC2)c2ccccn12	166	10	–	4.7	–
CC(C)c1nc(C(=O)NC2CCN(CC3(O)CCOCC3)CC2)c2ccccn12	434	63	0.38	4.7	–
COCCCN1CCC(NC(=O)c2nc(C(C)C)n3ccccc23)CC1	848	44	0.31	4.9	–
COC(=O)N1CCC(CN2C[C@@H]3[C@@H](CNC(=O)c4nc(C(C)C)n5ccccc45)[C@@H]3C2)CC1	150	12	0.69	3.3	–
